US11753408B2, “Compounds and method for blocking transmission of malarial parasite” (The United States of America, as represented by the …, priority 2016, dated 2023)
Read-outs that look alike come from different tables or passages of the source.

Assays:
[1] = Microsomal stability (rat); assay type: in vitro ADME; conditions: rat microsomes
Solubility at pH 7.4 = assay type: physicochemical
PAMPA permeability = assay type: in vitro ADME
[2] = tested on: Asexual parasites of P. falciparum strain 3D7; test: In vitro drug activity on asexual parasites (SYBR Green assay); assay type: cell-based, Plasmodium falciparum
Description: Cell culture. Asexual parasites of P. falciparum strain 3D7 were cultured as described previously [Trager W, et al., Journal of Parasitology 2005, 91: 484-486], Stage III-V gametocytes were selected and enriched with 3-day treatment with 50 mM N-acetylglucosamine (NAG) and the following Percoll density gradient centrifugation after gametocyte production [Tanaka T Q, et al., Molecular and Biochemical Parasitology, 2011, 111: 160-163], Gametocytes of HB3 and Dd2 strains were produced and then set up for assay in a similar process. HepG2 cells (ATCC, cat. no. 77400) were cultured in 175-cm^2 tissue culture flasks with 30 ml growth medium at 37° C. in a 5% CO2 humidified atmosphere. Growth medium was made with Dulbecco's Modified Eagle Medium with 10% fetal bovine serum (FBS). Growth medium was replaced every other day and cells were passed at 75% confluence.
Asexual parasites of P. falciparum strain 3D7 were cultured as described previously (Trager, W. et al., J. Parasitol. 2005, 91(3): 484-486). Drug activity on asexual stage parasites was tested using a SYBR Green assay as described previously (Eastman, R. T. et al., Antimicrob. Agents Chemother. 2013, 57(1): 425-435; Smilkstein, M. et al., Antimicrob. Agents Chemother. 2004, 48(5): 1803-1806). Briefly, parasites were diluted to 0.5% parasitemia in complete culture medium with 2% hematocrit and drugs diluted in DMSO (≤0.5%) and were loaded into a 96-well plate (200 μl/well). No drug and RBC alone wells were included as positive and background controls, respectively, and each testing condition was examined in duplicated. After 72 h incubation under the standard culture condition and a freeze-thaw lysis step at −80° C. and room temperature, 100 μl/well of lysis buffer containing SYBR Green I was added to the parasite culture and incubated for 30 min at room temperature. The fluorescence of each well was measured at 520 nm following excitation at 490 nm using a FLUOstar Optima™ microplate reader (BMG Labtech).

mTOR = mTOR (Homo sapiens, UniProt P42345); test: mTOR activity (no method described); assay type: biochemical
[3] = P. falciparum 3D7 asexual parasites, 72 h, SYBR Green

SMILES | Microsomal Stability (rat) T1/2 [1] [min] | Sol @ pH 7.4 (ug/mL) (Solubility at pH 7.4) | PAMPA Permeability (×10^6 cm/s) (PAMPA permeability) | EC50 [2, 3] [nM] | EC50 [2] [nM] | mTOR (mTOR) [nM] | Sol @ pH 7.4 (Solubility at pH 7.4) [ug/mL] | PAMPA Permeability (PAMPA permeability) [×10⁻⁶ cm/s]
Cc1cc(N2CCNCC2)c(C#N)cc1-n1c(=O)ccc2cnc3ccc(-c4ccc(Cl)cc4)cc3c21 [Compound 11] | 9.6 | <1 | 21 ×10^6 cm/s | – | – | – | – | –
CS(=O)(=O)c1ccc(-n2c(=O)ccc3cnc4ccc(-c5ccc(CN6CCCC6)cc5)cc4c32)cc1 [Compound 33] | >30 | 61 | 439.2 ×10^6 cm/s | 288 | – | – | – | –
Cc1cc(S(C)(=O)=O)ccc1-n1c(=O)ccc2cnc3ccc(-c4ccc(Cl)cc4)cc3c21 [Compound 34] | 17.1 | <1 | <1 ×10^6 cm/s | 59.4 | – | – | – | –
CS(=O)(=O)c1ccc(-n2c(=O)ccc3cnc4ccc(-c5ccc(Cl)cc5)cc4c32)cc1CN1CCNCC1 [Compound 35] | >30 | 4.3 | 35 ×10^6 cm/s | 75.8 | – | – | – | –
CS(=O)(=O)c1ccc(-n2c(=O)ccc3cnc4ccc(-c5ccc(C6(N)CC6)cc5)cc4c32)cc1 [Compound 36] | >30 | 5.9 | 6.5 ×10^6 cm/s | 188 | – | – | – | –
CS(=O)(=O)c1ccc(-n2c(=O)ccc3cnc4ccc(-c5ccc(N)nc5)cc4c32)cc1Cl [Compound 61] | >30 | 2.3 | <1 ×10^6 cm/s | 8.49 | – | – | – | –
CN(C)CCc1ccc(-c2ccc3ncc4ccc(=O)n(-c5ccc(S(C)(=O)=O)cc5)c4c3c2)cc1 [Compound 68] | >30 | 15.7 | 148.7 ×10^6 cm/s | 131 | – | – | – | –
Cc1cc(S(C)(=O)=O)ccc1-n1c(=O)ccc2cnc3ccc(-c4ccc(CN(C)C)cc4)cc3c21 [Compound 69] | >30 | >73 | 828.3 ×10^6 cm/s | 1940 | – | – | – | –
Cc1cc(S(C)(=O)=O)ccc1-n1c(=O)ccc2cnc3ccc(-c4ccc(N)nc4)cc3c21 [Compound 70] | 31.3 | 1.2 | 148.4 ×10^6 cm/s | 20.1 | – | – | – | –
CN(C)CCOc1ccc(-c2ccc3ncc4ccc(=O)n(-c5ccc(S(C)(=O)=O)cc5)c4c3c2)cc1 [Compound 71] | >30 | 2 | 133.5 ×10^6 cm/s | 56.6 | – | – | – | –
CNCc1cc(-n2c(=O)ccc3cnc4ccc(-c5ccc(Cl)cc5)cc4c32)ccc1C(=O)N1CCOCC1 [Compound 200] | – | – | – | – | 60 | 15370 | 7.2 | 1070
COc1cc(C(=O)NC2CC2)ccc1-n1c(=O)ccc2cnc3ccc(-c4ccc(C5(N)CC5)cc4)cc3c21 [Compound 205] | – | – | – | – | 177 | 1061 | 2.2 | 456
CN1CCN(CCCNC(=O)c2ccc(-n3c(=O)ccc4cnc5ccc(-c6ccc(Cl)cc6)cc5c43)cc2)CC1 [Compound 262] | 4.3 | – | – | – | 214 | 5399 | 0 | –
O=C(NC1CCN(CCO)CC1)c1ccc(-n2c(=O)ccc3cnc4ccc(-c5ccc(Cl)cc5)cc4c32)cc1 [Compound 263] | >30 | – | – | – | 58.8 | 1512 | 0 | –
CN1CCN(CCNC(=O)c2ccc(-n3c(=O)ccc4cnc5ccc(-c6ccc(Cl)cc6)cc5c43)cc2)CC1 [Compound 264] | 4.5 | – | – | – | 56.6 | 1321 | 0 | –
O=C(NCCN1CCCCC1)c1ccc(-n2c(=O)ccc3cnc4ccc(-c5ccc(Cl)cc5)cc4c32)cc1 [Compound 265] | 1.9 | – | – | – | 132 | 2064 | 0 | –
